In patent US20220348878A1, “CELL PROLIFERATION INHIBITOR” (BOURBON CORPORATION, priority 2019, published 2022):

What was measured:
Format in all cases: cell-based
[1] = test system: Human mesenchymal stem cell; test: Culture test with medium exchange every three days (Example 2), cell count; details: w/o Glc medium instead of w/Glc medium; Glutamic acid 8 mM; FIG. 3, Day 12
[2] = test system: Human mesenchymal stem cell; test: as above; details: for Number of cells: Glutamic acid: 8 mM, average of three wells
Protocol: (§1) Human mesenchymal stem cells (manufactured by Lonza, Catalog No. PT-5006) were cultured in a cell culture dish (100-mm culture dish, obtained from SANPLATEC CO., LTD.) coated with 10 μg/ml Fibronectin (Promocell) at 37° C. in the presence of 5% CO2, and used. As the medium, the DMEM basal medium was used.
(§2) After cell culture, the cells were recovered using a 0.1% by weight trypsin/1 mM EDTA solution, and seeded on a 12-well plate (obtained from Corning Co., Ltd.), and cultured overnight at 37° C. in the presence of 5% CO2 using the above DMEM basal medium.
(§3) The DMEM basal medium was replaced with the desired cell maintenance medium, and the cells were cultured (“Day 0 after culture”). No medium exchange was performed during the culture period.
The same culture test as in Example 1 was conducted except that the medium was exchanged every three days during the culture period.
Tables 1 to 2 indicate the number of cells for each culture day. […] Note that the number of cells is an average of the numbers of cell counts in three wells, and the counts is measured by the following method.
(§4) After removing the culture supernatant of the cells by suction and washing the cells by using PBS, the cells were peeled off by using 0.1% trypsin/1 mM EDTA solution (FUJIFILM Wako Pure Chemical Corporation). The reaction of the releasing solution was stopped by adding the medium, and the cells were recovered. And then, the cell counts was conducted by using the Countess™ II Automated Cell Counter (Thermo Fisher Scientific).

[3] = test system: Human mesenchymal stem cells; test: Test for confirming cell proliferation inhibitory effect (Example 1), phase-contrast observation of cell state; details: Day 9, no medium exchange; for Cell state: number of dead cells and cell proliferation: 1 mM, 5 mM or 8 mM glutamic acid
Protocol: as §1, §2, §3
(§5) Further, the same culture test as described above was conducted except that 1 mM, 5 mM or 8 mM of glutamic acid was added to the basal medium for cell culture.

[4] = test system: Human fibroblast; test: Culture test with medium exchange every three days (Example 2), cell count; details: for Number of cells: Glutamic acid: 8 mM, average of three wells
Protocol: As the medium, the DMEM basal medium was used.
After cell culture, the cells were recovered using a 0.1% by weight trypsin/1 mM EDTA solution, and seeded on a 12-well plate (obtained from Corning Co., Ltd.), and cultured overnight at 37° C. in the presence of 5% CO2 using the above DMEM basal medium. […]
Note that the number of cells is an average of the numbers of cell counts in three wells, and the counts is measured by the following method.
as §4

[5] = test system: Human fibroblasts; test: Test for confirming cell proliferation inhibitory effect (Example 1), phase-contrast observation of cell state; details: Day 9, no medium exchange; for Cell state: number of dead cells and cell proliferation: 1 mM, 5 mM or 8 mM glutamic acid
Protocol: Human fibroblasts (Catalog No. CC-2511) were cultured in a gelatin-coated cell culture dish (100-mm culture dish, obtained from SANPLATEC CO., LTD.) at 37° C. in the presence of 5% CO2, and used. As the medium, the DMEM basal medium was used.
as §2, §3, §5

[6] = glucose-free DMEM basal medium (w/o Glc)
[7] = xylose DMEM basal medium (w/Xy)

N[C@@H](CCC(=O)O)C(=O)O [Glutamic acid, glutamic acid]
Condition of cells (whitening around cells) [1]: the ratio of whitening around cells ware large, and the conditions of cells deteriorated
Number of cells ([2]; Medium: w/Glc, Day 0): 0.356 ×10^4 cells/cm^2
Number of cells ([2]; Medium: w/Glc, Day 3): 1.12 ×10^4 cells/cm^2
Number of cells ([2]; Medium: w/Glc, Day 6): 2.96 ×10^4 cells/cm^2
Number of cells ([2]; Medium: w/Glc, Day 9): 3.23 ×10^4 cells/cm^2
Number of cells ([2]; Medium: w/Glc, Day 12): 3.75 ×10^4 cells/cm^2
Number of cells ([2]; Medium: w/Glc, Day 15): 4.46 ×10^4 cells/cm^2
Number of cells ([2]; Medium: w/Glc, Day 18): 5.37 ×10^4 cells/cm^2
Number of cells ([2]; Medium: w/Xy, Day 0): 0.356 ×10^4 cells/cm^2
Number of cells ([2]; Medium: w/Xy, Day 3): 0.855 ×10^4 cells/cm^2
Number of cells ([2]; Medium: w/Xy, Day 6): 0.998 ×10^4 cells/cm^2
Number of cells ([2]; Medium: w/Xy, Day 9): 1.65 ×10^4 cells/cm^2
Number of cells ([2]; Medium: w/Xy, Day 12): 1.87 ×10^4 cells/cm^2
Number of cells ([2]; Medium: w/Xy, Day 15): 2.77 ×10^4 cells/cm^2
Number of cells ([2]; Medium: w/Xy, Day 18): 3.90 ×10^4 cells/cm^2
Number of cells ([2]; Medium: w/o Glc, Day 0): 0.356 ×10^4 cells/cm^2
Number of cells ([2]; Medium: w/o Glc, Day 3): 0.591 ×10^4 cells/cm^2
Number of cells ([2]; Medium: w/o Glc, Day 6): 0.662 ×10^4 cells/cm^2
Number of cells ([2]; Medium: w/o Glc, Day 9): 1.06 ×10^4 cells/cm^2
Number of cells ([2]; Medium: w/o Glc, Day 12): 1.04 ×10^4 cells/cm^2
Number of cells ([2]; Medium: w/o Glc, Day 15): 1.50 ×10^4 cells/cm^2
Number of cells ([2]; Medium: w/o Glc, Day 18): 1.58 ×10^4 cells/cm^2
Cell proliferation inhibition compared with the control test with w/Glc medium ([2]; w/Glc medium, Glutamic acid 8 mM, from Table 2): it was possible to inhibit the cell proliferation till 18 days after
Cell proliferation inhibitory effect ([2]; w/Xy medium instead of w/Glc medium, Glutamic acid 8 mM, from Table 2): the cell proliferation inhibitory effect was remarkable
Cell state: number of dead cells and cell proliferation [3, 6]: the number of dead cells decreased and cell proliferation was inhibited as the glutamic acid concentration increased
Dead cells observed ([3]; w/Xy, glutamic acid concentration 5 to 8 mM): dead cells were hardly observed
Cell state: number of dead cells and cell proliferation [3, 7]: the number of dead cells decreased and cell proliferation was inhibited as the glutamic acid concentration increased
Number of cells ([4]; Medium: w/G1c, Day 0): 0.07 ×10^5 cells/cm^2
Number of cells ([4]; Medium: w/G1c, Day 6): 0.56 ×10^5 cells/cm^2
Number of cells ([4]; Medium: w/G1c, Day 12): 1.46 ×10^5 cells/cm^2
Number of cells ([4]; Medium: w/G1c, Day 18): 1.72 ×10^5 cells/cm^2
Number of cells ([4]; Medium: w/Xy, Day 0): 0.07 ×10^5 cells/cm^2
Number of cells ([4]; Medium: w/Xy, Day 6): 0.37 ×10^5 cells/cm^2
Number of cells ([4]; Medium: w/Xy, Day 12): 1.13 ×10^5 cells/cm^2
Number of cells ([4]; Medium: w/Xy, Day 18): 1.28 ×10^5 cells/cm^2
Number of cells ([4]; Medium: w/o G1c, Day 0): 0.07 ×10^5 cells/cm^2
Number of cells ([4]; Medium: w/o G1c, Day 6): 0.27 ×10^5 cells/cm^2
Number of cells ([4]; Medium: w/o G1c, Day 12): 0.08 ×10^5 cells/cm^2
Cell proliferation inhibition compared with the control test with w/Glc medium ([4]; w/Glc medium, Glutamic acid 8 mM, from Table 1): the cell proliferation was inhibited till 6 days after
Cell proliferation inhibitory effect ([4]; w/Xy medium instead of w/Glc medium, Glutamic acid 8 mM, from Table 1): the cell proliferation inhibitory effect was remarkable, and it was possible to inhibit the cell proliferation for a longer period
Number of cells and dead cells ([4]; w/o Glc medium instead of w/Glc medium, Glutamic acid 8 mM, from Table 1): the number of cells after 12 days was remarkably less, and the dead cells occurred
Cell state: number of dead cells and cell proliferation [5, 6]: the number of dead cells decreased and cell proliferation was inhibited as the glutamic acid concentration increased
Dead cells observed ([5]; w/Xy, glutamic acid concentration 1 to 8 mM): dead cells were hardly observed
Cell state: number of dead cells and cell proliferation [5, 7]: the number of dead cells decreased and cell proliferation was inhibited as the glutamic acid concentration increased
